We go through 37 compounds from US10703764B2, “Benzopiperazine compositions as BET bromodomain inhibitors” (FORMA Therapeutics, Inc., priority 2013, dated 2020).

One assay concerns MV4-11 cells. The assay can be described thus: Oncology cell growth assay (3-day proliferation, CellTiter-Glo). The assay is classed as cell-based. Particulars: Homo sapiens, MV4-11, 72 h, AML cell line MV4-11, 72 hours, compounds grouped by IC50 range, read-out: MV4-11 IC50 (inhibition of proliferation, gIC50). The essentials: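 A 3-day proliferation test used MV4-11 cells seeded at 3000 per well with eight compound concentrations (10 μM top, 3-fold dilution) at 37° C in 5% CO2. CellTiter-Glo luminescence defined viable cell signal. A four-parameter logistic curve against DMSO and background wells gave the gIC50.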
A general note: Cellular ATP, detected with luciferase, serves as a proxy for viable cell number.

A further assay addresses T1, BRD4 BD1 (Homo sapiens, UniProt O60885).
T1 construct: made in house
As to the kind of experiment: AlphaScreen binding assay, BRD4 Bromodomain 1. In a few lines:
(§1)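 Compound dilution series were mixed with His-tagged BRD4 bromodomain and biotinylated tetra-acetylated H4 (1-21) peptide at pH 7.3 (BD1 and peptide at 50 nM, BD2 and peptide at 100 nM). Donor and acceptor beads were then added, and plates were equilibrated at least 1 h before reading. IC50 values were fitted with a four-parameter logistic model.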

In the next assay the target is T2, BRD4 BD2 (Homo sapiens, UniProt O60885).
T2 construct: made in house
The assay can be described thus: AlphaScreen binding assay, BRD4 Bromodomain 2. The essentials:
as §1
(In general: Bead proximity is the source of the signal in Alpha formats.)

Regarding `CC(=O)N1c2ccc(-c3cnn(C4COC4)c3)cc2N(C(=O)Oc2ccccc2)C[C@@H]1C` [Example I-88, (S)-phenyl 4-acetyl-3-methyl-7-(1-(oxetan-3-yl)-1H-pyrazol-4-yl)-3,4-dihydroquinoxaline-1(2H)-carboxylate], the IC50 in the assay on MV4-11 cells was less than 100 nM; at BRD4 BD1 it was 100 to 1000 nM; at BRD4 BD2 it was less than 50 nM.
Take `COC(=O)N1c2ccc(-c3cnn(CCS(C)(=O)=O)c3)cc2N(C(=O)OC(C)C)C[C@@H]1C` [Example I-318]: the IC50 was greater than 500 nM in the assay on MV4-11 cells, 100 to 1000 nM at BRD4 BD1 and 50 to 500 nM at BRD4 BD2.
For `CC(=O)N1c2ccc(-c3ccc(S(=O)(=O)C(C)C)cc3)cc2N(C(=O)OC(C)C)C[C@@H]1C` [Example I-1065], the IC50 was 100 to 500 nM in the assay on MV4-11 cells, 100 to 1000 nM at BRD4 BD1 and 50 to 500 nM at BRD4 BD2.
The like results for `CC(=O)N1c2ccc(-c3ccc(C(=O)N4CCCC[C@@H]4CN)cc3)cc2N(C(=O)OC(C)C)C[C@@H]1C` [Example I-591] were, in that order, 100 to 500 nM, 100 to 1000 nM and 50 to 500 nM.
Turning to `COC(=O)N1c2ccc(-c3cnn(Cc4c(C)noc4C)c3)cc2N(C(=O)OC(C)C)C[C@@H]1C` [Example I-634], the results for the IC50 with MV4-11 cells, at BRD4 BD1 and on BRD4 BD2 were 100 to 500 nM, 100 to 1000 nM and 50 to 500 nM, respectively.
For `CC(C)OC(=O)N1C[C@H](C)N(C(=O)C2CC2)c2ccc(-c3cnn(CC(N)=O)c3)cc21` [Example I-310], the IC50 in the assay with MV4-11 cells was greater than 500 nM; at BRD4 BD1 it was 100 to 1000 nM; on BRD4 BD2, 50 to 500 nM.
The like results for `CC(C)OC(=O)N1C[C@H](C)N(C(=O)C2CC2)c2ccc(-c3ccc(C(=O)N4CCN(S(C)(=O)=O)CC4)cc3)cc21` [Example I-572] were, in that order, 100 to 500 nM, 100 to 1000 nM and greater than 500 nM.
As to `CCCn1cc(-c2ccc3c(c2)N(C(=O)c2ccco2)C[C@H](C)N3C(C)=O)cn1` [Example I-269], the figures for the IC50 in the assay with MV4-11 cells, on BRD4 BD1 and on BRD4 BD2 were 100 to 500 nM, 100 to 1000 nM and less than 50 nM, respectively.
On the same counts, the results for `CC(=O)N1c2ccc(-c3ccc(S(=O)(=O)CCN)cc3)cc2N(C(=O)C2CC2)C[C@@H]1C` [Example I-447] are greater than 500 nM, 1000 to 10000 nM and 50 to 500 nM.
`CC(=O)N1c2ccc(-c3cnn(Cc4cncs4)c3)cc2N(C(=O)C2CC2)C[C@@H]1C` [Example I-686]: the values for the IC50 in the assay on MV4-11 cells, on BRD4 BD1 and on BRD4 BD2 were 100 to 500 nM, 100 to 1000 nM and 50 to 500 nM, respectively.
On the same counts, the results for `CC(=O)N1c2ccc(-c3ccc(N(C)S(C)(=O)=O)cc3)cc2N(C(=O)OC(C)C)C[C@@H]1C` [Example I-346] are 100 to 500 nM, 100 to 1000 nM and 50 to 500 nM.
On the same counts, the results for `CC(=O)N1c2ccc(-c3cnn(CCO)c3)cc2N(C(=O)Oc2ccccn2)C[C@@H]1C` [Example I-1334] are 100 to 500 nM, 100 to 1000 nM and 50 to 500 nM.
The like results for `CCS(=O)(=O)c1ccc(-c2ccc3c(c2)N(C(=O)OC(C)C)C[C@H](C)N3C(C)=O)cc1` [Example I-1030] were, in that order, 100 to 500 nM, 100 to 1000 nM and 50 to 500 nM.
Regarding `CC(=O)N1c2ccc(-c3cnn(C4COC4)c3)cc2N(C(=O)Oc2cccnc2)C[C@@H]1C` [Example I-89, (S)-pyridin-3-yl 4-acetyl-3-methyl-7-(1-(oxetan-3-yl)-1H-pyrazol-4-yl)-3,4-dihydroquinoxaline-1(2H)-carboxylate], the figures for the IC50 in the assay on MV4-11 cells, at BRD4 BD1 and on BRD4 BD2 were 100 to 500 nM, less than 100 nM and less than 50 nM, respectively.
The like results for `CC(=O)N1c2ccc(-c3cnn(CC4CCC4)c3)cc2N(C(=O)OC(C)C)C[C@@H]1C` [Example I-603] were, in that order, 100 to 500 nM, 100 to 1000 nM and 50 to 500 nM.
The like results for `CCS(=O)(=O)Nc1cccc(-c2ccc3c(c2)N(C(=O)OC2CCOCC2)C[C@H](C)N3C(C)=O)c1` [Example I-1228] were, in that order, 100 to 500 nM, 100 to 1000 nM and 50 to 500 nM.
The like results for `CC(=O)N1c2ccc(-c3ccc(S(=O)(=O)NC(C)(C)C)cc3)cc2N(C(=O)C2CCC2)C[C@@H]1C` [Example I-1128] were, in that order, 100 to 500 nM, 1000 to 10000 nM and 50 to 500 nM.
Take `CC(=O)N1c2ccc(-c3ccc(S(=O)(=O)N(C)C)c(C)c3)cc2N(C(=O)OC(C)C)C[C@@H]1C` [Example I-1299]: the figures for the IC50 with MV4-11 cells, at BRD4 BD1 and on BRD4 BD2 were 100 to 500 nM, 100 to 1000 nM and 50 to 500 nM, respectively.
The like results for `CC(=O)N1c2ccc(-c3ccc(S(C)(=O)=O)cc3)cc2N(C(=O)Oc2ccccc2)C[C@@H]1C` [Example I-223] were, in that order, less than 100 nM, 100 to 1000 nM and less than 50 nM.
On the same counts, the results for `CC(=O)N1c2ccc(-c3ccc(S(N)(=O)=O)c(F)c3)cc2N(C(=O)OC(C)C)C[C@@H]1C` [Example I-1298] are greater than 500 nM, 1000 to 10000 nM and 50 to 500 nM.
As for `CC(=O)N1c2ccc(-c3ccc(S(C)(=O)=O)c(F)c3)cc2N(C(=O)OC2CCOCC2)C[C@@H]1C` [Example I-1242], the values for the IC50 in the assay on MV4-11 cells, on BRD4 BD1 and at BRD4 BD2 were greater than 500 nM, 1000 to 10000 nM and 50 to 500 nM, respectively.
The like results for `CC(C)OC(=O)N1C[C@H](C)N(C(=O)C2CC2)c2ccc(-c3ccc(C(=O)N4CC[C@H](O)C4)cc3)cc21` [Example I-574] were, in that order, greater than 500 nM, 100 to 1000 nM and 50 to 500 nM.
For `COc1ccc(-c2ccc3c(c2)N(C(=O)C2CCC2)C[C@H](C)N3C(C)=O)cc1NS(C)(=O)=O` [Example I-1140], the values for the IC50 in the assay with MV4-11 cells, at BRD4 BD1 and at BRD4 BD2 were 100 to 500 nM, 1000 to 10000 nM and 50 to 500 nM, respectively.
The like results for `CC(C)OC(=O)N1C[C@H](C)N(C(=O)C2CC2)c2ccc(-c3cnn(C4CCNCC4)c3)cc21` [Example I-354] were, in that order, 100 to 500 nM, 100 to 1000 nM and 50 to 500 nM.
The like results for `CC(=O)N1c2ccc(-c3ccc4c(c3)N(S(C)(=O)=O)CCC4)cc2N(C(=O)C2CC2)C[C@@H]1C` [Example I-1184] were, in that order, 100 to 500 nM, 100 to 1000 nM and 50 to 500 nM.
In the case of `CC(=O)N1c2ccc(-c3cnn(Cc4cnccn4)c3)cc2N(C(=O)C2CC2)C[C@@H]1C` [Example I-123, (S)-1-(4-(cyclopropanecarbonyl)-2-methyl-6-(1-(pyrazin-2-ylmethyl)-1H-pyrazol-4-yl)-3,4-dihydroquinoxalin-1(2H)-yl)ethanone], the IC50 is greater than 500 nM with MV4-11 cells, 1000 to 10000 nM on BRD4 BD1 and 50 to 500 nM at BRD4 BD2.
On the same counts, the results for `CC(=O)N1c2ccc(-c3ccc(NS(C)(=O)=O)c(C)c3)cc2N(C(=O)OC(C)C)C[C@@H]1C` [Example I-1174] are 100 to 500 nM, 100 to 1000 nM and 50 to 500 nM.
On the same counts, the results for `COc1ccccc1OC(=O)N1C[C@H](C)N(C(C)=O)c2ccc(-c3cnn(C4CC4)c3)cc21` [Example I-258] are less than 100 nM, 100 to 1000 nM and less than 50 nM.
On the same counts, the results for `CC(=O)N1c2ccc(-c3ccc(NS(C)(=O)=O)cc3)cc2N(C(=O)c2ccco2)C[C@@H]1C` [Example I-279] are less than 100 nM, 100 to 1000 nM and less than 50 nM.
On to `CC(=O)N1c2ccc(-c3ccc(C(=O)N4CCNCC4)cc3)cc2N(C(=O)C2CC2)C[C@@H]1C` [Example I-437], for which the IC50 with MV4-11 cells was 100 to 500 nM; on BRD4 BD1, 100 to 1000 nM; on BRD4 BD2, 50 to 500 nM.
Take `CCN(CC)S(=O)(=O)c1cc(-c2ccc3c(c2)N(C(=O)OC(C)C)C[C@H](C)N3C(C)=O)ccc1OC` [Example I-1115]: the IC50 in the assay on MV4-11 cells is 100 to 500 nM; on BRD4 BD1 it was 100 to 1000 nM; at BRD4 BD2, 50 to 500 nM.
On the same counts, the results for `COC(=O)N1c2ccc(-c3cnn(CCn4ccnc4)c3)cc2N(C(=O)OC(C)C)C[C@@H]1C` [Example I-627] are greater than 500 nM, 100 to 1000 nM and 50 to 500 nM.
As to `COc1ccccc1OC(=O)N1C[C@H](C)N(C(C)=O)c2ccc(-c3ccc(S(C)(=O)=O)cc3)cc21` [Example I-227], the IC50 in the assay on MV4-11 cells was less than 100 nM; on BRD4 BD1 it was 100 to 1000 nM; at BRD4 BD2 it was less than 50 nM.
The like results for `CC(=O)N1c2ccc(-c3ccc(C(=O)NCC(N)=O)cc3)cc2N(C(=O)OC(C)C)C[C@@H]1C` [Example I-534] were, in that order, 100 to 500 nM, 100 to 1000 nM and 50 to 500 nM.
Consider `CC(=O)N1c2ccc(-c3cnn(C4CC4)c3)cc2N(C(=O)Oc2ccc(Cl)cc2)C[C@@H]1C` [Example I-260], for which the IC50 with MV4-11 cells is 100 to 500 nM; on BRD4 BD1 it was less than 100 nM; on BRD4 BD2, less than 50 nM.
As to `CC(=O)N1c2ccc(-c3ccc(S(=O)(=O)NC(C)C)cc3)cc2N(C(=O)c2ccco2)C[C@@H]1C` [Example I-274], the IC50 was 100 to 500 nM in the assay with MV4-11 cells, 1000 to 10000 nM at BRD4 BD1 and less than 50 nM on BRD4 BD2.
Consider `COC(=O)N1c2ccc(-c3ccc(C(=O)N4CCN(S(C)(=O)=O)CC4)cc3)cc2N(C(=O)OC(C)C)C[C@@H]1C` [Example I-573], for which the IC50 in the assay with MV4-11 cells fell in the range of 100 to 500 nM; on BRD4 BD1, 100 to 1000 nM; on BRD4 BD2, 50 to 500 nM.
